Columns and labels:
[1] = in vitro binding to rat plasma proteins; format: in vitro ADME; details: compound concentration 10 μg/mL, read-out: Protein Binding (converted)
Text: (§1) Table I and II show, as an example, the significant differences in T1/2 and protein binding (%) between metabolites of formula (I) and corresponding parent compounds of formula (III).

[2] = T1/2 after single bolus i.v. administration in rat; details: in vivo, iv; after single bolus i.v. administration in rat (15 mg/Kg); read-out: T½ (converted)
Text: Furthermore, the compounds of formula (I) have a pharmacokinetic profile particularly advantageous for the therapeutic use. In fact, as compared to the compounds of formula (III), the compounds of the invention, administered “in vivo” by the i.v. route, show a longer T1/2 associated to a reduced clearance time.
as §1

[3] = tested on: IL-8 induced chemotaxis of human PMNs; test: IL-8 induced PMN chemotaxis assay; format: cell-based; details: read-out: inhibition of IL-8-induced PMN migration
Experimental: The compounds of the invention of formula (I) were evaluated in vitro for their ability to inhibit chemotaxis of polymorphonucleate leukocytes (hereinafter referred to as PMNs) and monocytes induced by the fractions of IL-8 and GRO-α and C5a and directly compared to the corresponding parent 4-isobutyl compounds of formula (III). For this purpose, in order to isolate the PMNs from heparinized human blood, taken from healthy adult volunteers, mononucleates were removed by means of sedimentation on dextran (according to the procedure disclosed by W. J. Ming et al., J. Immunol., 138, 1469, 1987) and red blood cells by a hypotonic solution. The cell vitality was calculated by exclusion with Trypan blue, whilst the ratio of the circulating polymorphonucleates was estimated on the cytocentrifugate after staining with Diff Quick. […]
The compounds of the invention in formula (I) were evaluated at a concentration ranging between 10^−6 and 10^−10 M; for this purpose they were added, at the same concentration, both to the lower pores and the upper pores of the microchamber. […]

| fraction unbound at 10 μg/mL [1] | half-life [2] | Structure (SMILES) | inhibition at 1 µM ([3]; compound concentration 10^−6M) | inhibition at 0.01 µM ([3]; compound concentration 10^−8M) |
| --- | --- | --- | --- | --- |
| 0.2 | 1 h | CC(C)Cc1ccc([C@@H](C)C(=O)NCCCN2CCCCC2)cc1 [(R)-2-[(4-isobutyl)phenyl]-N-[3″-(N′-piperidino)propyl]propionamide, reference compound] | – | – |
| 0.28 | 2 h | CC(Cc1ccc([C@@H](C)C(=O)NS(C)(=O)=O)cc1)C(=O)O (stereo partly drawn) [Example 1, (2R) (2″ R, S) 2-[4′-(2″-carboxyprop-1-yl)phenyl]propionyl methanesulfonamide] | 66 ± 8% | 49 ± 9% |
| < 0.01 | 0.5 h | CC(C)Cc1ccc([C@@H](C)C(=O)NS(C)(=O)=O)cc1 [(R)-2-[(4-isobutyl)phenyl]propionyl methanesulfonamide, reference compound] | – | – |
| 0.3 | 2 h | CC(Cc1ccc([C@@H](C)C(=O)NCCCN2CCCCC2)cc1)C(=O)O (stereo partly shown) [Example 4] | – | – |
